Experiments:
Assay type in all cases: in vivo
[1] = tested on: field corn (Zea mays L., var. Dekalb 535, CORN); test: Pre-emerge test, crop safety; conditions: pre-emerge, 14 days after application, rating scale 0-100
Procedure, shortened: (§1)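 Compounds in acetone were track-sprayed at 15-1000 g ai/ha (187 l/ha) on sandy loam pots: pre-emerge one day after seeding, post-emerge at 2-3 leaf stage with 0.25% v/v non-ionic surfactant. Phytotoxicity was rated 14 days later on a 0 (no damage) to 100 (complete death) scale.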

[2] = tested on: upland rice (Oryza sp., var. Tebonnet, RICE); test: Pre-emerge test, crop safety; conditions: pre-emerge, 14 days after application, rating scale 0-100
Procedure, shortened: as §1

[3] = tested on: redroot pigweed (Amaranthus retroflexus, AMARE); test: Pre-emerge test, greenhouse herbicide activity screening; conditions: pre-emerge, 14 days after application, rating scale 0-100
Procedure, shortened: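 Compounds in acetone were track-sprayed at 187 l/ha, 15–1000 g ai/ha, onto sandy loam pots. Pre-emerge seeds were sown one day before spraying, with surface watering afterwards. Post-emerge plants were at the 2–3 leaf stage and sprayed with 0.25% v/v non-ionic surfactant. Injury was rated 0–100 at 14 days.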

[4] = tested on: lambsquarters (Chenopodium album, CHEAL); test: Post-emerge test, greenhouse herbicide activity screening; conditions: post-emerge, 14 days after application, rating scale 0-100
Procedure, shortened: (§2)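 Compounds in acetone were track-sprayed at 15–1000 g ai/ha: pre-emergence onto soil sown the previous day, then top-watered to incorporate and later bottom-watered; post-emergence onto 2–3 leaf plants with 0.25% v/v surfactant, bottom-watered only. Ratings on a 0–100 phytotoxicity scale were taken at day 14.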

[5] = tested on: green foxtail (Setaria viridis, SETVI); test: as above; conditions: post-emerge, 14 days after application, rating scale 0-100
Procedure, shortened: as §2

[6] = tested on: sicklepod (Cassia obtusifolia, CASOB); test: as above; conditions: post-emerge, 14 days after application, rating scale 0-100
Procedure, shortened: as §2

[7] = tested on: redroot pigweed (Amaranthus retroflexus, AMARE); test: as above; conditions: post-emerge, 14 days after application
Procedure, shortened: as §2

[8] = tested on: barnyardgrass (Echinochloa crus-galli, ECHCG); test: as above; conditions: post-emerge, 14 days after application, rating scale 0-100
Procedure, shortened: as §2

[9] = tested on: velvetleaf (Abutilon theophrasti, ABUTH); test: as above; conditions: post-emerge, 14 days after application, rating scale 0-100
Procedure, shortened: as §2

[10] = tested on: ivyleaf morningglory (Ipomoea hederacea, IPOHE); test: as above; conditions: post-emerge, 14 days after application, rating scale 0-100
Procedure, shortened: as §2

[11] = tested on: johnsongrass (Sorghum halepense, SORHA); test: as above; conditions: post-emerge, 14 days after application, rating scale 0-100
Procedure, shortened: as §2

[12] = tested on: large crabgrass (Digitaria sanguinalis, DIGSA); test: as above; conditions: post-emerge, 14 days after application, rating scale 0-100
Procedure, shortened: as §2

[13] = tested on: field corn (Zea mays L., var. Dekalb 535, CORN); test: Post-emerge test, crop safety; conditions: post-emerge, 14 days after application, rating scale 0-100
Procedure, shortened: (§3)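 Applied at 15–1000 g ai/ha from acetone in 187 l/ha spray volume. Post-emergence applications included 0.25% v/v non-ionic surfactant and reached plants sown 8–21 days before. Pre-emergence applications were incorporated by surface watering. Efficacy or crop damage was rated on a 0–100 scale after 14 days.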

[14] = tested on: upland rice (Oryza sp., var. Tebonnet, RICE); test: Post-emerge test, crop safety; conditions: post-emerge, 14 days after application, rating scale 0-100
Procedure, shortened: as §3

[15] = tested on: lambsquarters (Chenopodium album, CHEAL); test: Pre-emerge test, greenhouse herbicide activity screening; conditions: pre-emerge, 14 days after application, rating scale 0-100
Procedure, shortened: as §3

[16] = tested on: green foxtail (Setaria viridis, SETVI); test: as above; conditions: pre-emerge, 14 days after application, rating scale 0-100
Procedure, shortened: as §3

[17] = tested on: sicklepod (Cassia obtusifolia, CASOB); test: as above; conditions: pre-emerge, 14 days after application, rating scale 0-100
Procedure, shortened: as §3

[18] = tested on: barnyardgrass (Echinochloa crus-galli, ECHCG); test: as above; conditions: pre-emerge, 14 days after application, rating scale 0-100
Procedure, shortened: as §3

[19] = tested on: velvetleaf (Abutilon theophrasti, ABUTH); test: as above; conditions: pre-emerge, 14 days after application, rating scale 0-100
Procedure, shortened: as §3

[20] = tested on: ivyleaf morningglory (Ipomoea hederacea, IPOHE); test: as above; conditions: pre-emerge, 14 days after application, rating scale 0-100
Procedure, shortened: as §3

[21] = tested on: johnsongrass (Sorghum halepense, SORHA); test: as above; conditions: pre-emerge, 14 days after application, rating scale 0-100
Procedure, shortened: as §3

[22] = tested on: large crabgrass (Digitaria sanguinalis, DIGSA); test: as above; conditions: pre-emerge, 14 days after application, rating scale 0-100
Procedure, shortened: as §3

COc1c(Cl)cc(F)c(-n2c(=O)cc(C(F)(F)F)n(C)c2=O)c1SC(C)C [17-2]
60: phytotoxicity rating AMARE ([3]; 250 g ai/ha) | phytotoxicity rating CHEAL ([15]; 63 g ai/ha)
30: phytotoxicity rating AMARE ([3]; 63 g ai/ha) | Post-emerge Herbicidal Activity AMARE (phytotoxicity rating) ([7]; 250 g ai/ha, rating scale 0-100)
40: Post-emerge Herbicidal Activity CHEAL (phytotoxicity rating) ([4]; 250 g ai/ha)
0: phytotoxicity rating CORN ([1]; 63 g ai/ha) | phytotoxicity rating CORN ([1]; 250 g ai/ha) | phytotoxicity rating RICE ([2]; 63 g ai/ha) | phytotoxicity rating RICE ([2]; 250 g ai/ha) | Post-emerge Herbicidal Activity CHEAL (phytotoxicity rating) ([4]; 63 g ai/ha) | Post-emerge Herbicidal Activity SETVI (phytotoxicity rating) ([5]; 63 g ai/ha) | Post-emerge Herbicidal Activity SETVI (phytotoxicity rating) ([5]; 250 g ai/ha) | Post-emerge Herbicidal Activity CASOB (phytotoxicity rating) ([6]; 63 g ai/ha) | Post-emerge Herbicidal Activity AMARE (phytotoxicity rating) ([7]; 63 g ai/ha, rating scale 0-100 (0 no damage, 100 complete death)) | Post-emerge Herbicidal Activity ECHCG (phytotoxicity rating) ([8]; 63 g ai/ha) | Post-emerge Herbicidal Activity ECHCG (phytotoxicity rating) ([8]; 250 g ai/ha) | Post-emerge Herbicidal Activity ABUTH (phytotoxicity rating) ([9]; 63 g ai/ha) | Post-emerge Herbicidal Activity IPOHE (phytotoxicity rating) ([10]; 63 g ai/ha) | Post-emerge Herbicidal Activity SORHA (phytotoxicity rating) ([11]; 63 g ai/ha) | Post-emerge Herbicidal Activity SORHA (phytotoxicity rating) ([11]; 250 g ai/ha) | Post-emerge Herbicidal Activity DIGSA (phytotoxicity rating) ([12]; 63 g ai/ha) | Post-emerge Herbicidal Activity DIGSA (phytotoxicity rating) ([12]; 250 g ai/ha) | Post-emerge Herbicidal Activity CORN (crop damage rating) ([13]; 63 g ai/ha) | Post-emerge Herbicidal Activity CORN (crop damage rating) ([13]; 250 g ai/ha) | Post-emerge Herbicidal Activity RICE (crop damage rating) ([14]; 63 g ai/ha) | Post-emerge Herbicidal Activity RICE (crop damage rating) ([14]; 250 g ai/ha) | phytotoxicity rating SETVI ([16]; 63 g ai/ha) | phytotoxicity rating SETVI ([16]; 250 g ai/ha) | phytotoxicity rating CASOB ([17]; 63 g ai/ha) | phytotoxicity rating CASOB ([17]; 250 g ai/ha) | phytotoxicity rating ECHCG ([18]; 63 g ai/ha) | phytotoxicity rating ECHCG ([18]; 250 g ai/ha) | phytotoxicity rating ABUTH ([19]; 63 g ai/ha) | phytotoxicity rating IPOHE ([20]; 63 g ai/ha) | phytotoxicity rating IPOHE ([20]; 250 g ai/ha) | phytotoxicity rating SORHA ([21]; 63 g ai/ha) | phytotoxicity rating SORHA ([21]; 250 g ai/ha) | phytotoxicity rating DIGSA ([22]; 63 g ai/ha) | phytotoxicity rating DIGSA ([22]; 250 g ai/ha)
10: Post-emerge Herbicidal Activity CASOB (phytotoxicity rating) ([6]; 250 g ai/ha)
90: phytotoxicity rating CHEAL ([15]; 250 g ai/ha)
50: Post-emerge Herbicidal Activity ABUTH (phytotoxicity rating) ([9]; 250 g ai/ha)
20: Post-emerge Herbicidal Activity IPOHE (phytotoxicity rating) ([10]; 250 g ai/ha) | phytotoxicity rating ABUTH ([19]; 250 g ai/ha)
